According to ChEMBL document CHEMBL1139607, “Synthetic lanostane-type triterpenoids as inhibitors of DNA topoisomerase II” (Bioorg Med Chem Lett, 2005):

Columns and labels:
A549 = experiment: Effective dose on human lung carcinoma (A549) cells; type: functional; settings: read-out: ED50 (the source's name)
DNA topoisomerase II = DNA topoisomerase II (Homo sapiens, UniProt P11388+Q02880); experiment: Inhibitory concentration against human DNA topoisomerase II; type: protein assay

Row | SMILES | EC50 (A549) [µM] | IC50 (DNA topoisomerase II) [µM]
1 | C[C@H](CC[C@@H](O)C(C)(C)O)[C@H]1CC[C@]2(C)C3CCC4C(C)(C)C(=O)C(C(=O)O)=C[C@]4(C)C3=CC[C@]12C (some centres not stated) | 7.33 | 23.8
2 | C[C@H](CC[C@@H](O)C(C)(C)O)[C@H]1CC[C@]2(C)C3CCC4C(C)(C)C(=O)C(Cl)=C[C@]4(C)C3=CC[C@]12C (some centres not stated) | 38.1 | 106.8
3 | C[C@H](CC[C@@H](O)C(C)(C)O)[C@H]1CC[C@]2(C)C3CCC4C(C)(C)C(=O)C(C=O)=C[C@]4(C)C3=CC[C@]12C (some centres not stated) | 13.1 | 1.86
4 | COc1cc([C@@H]2c3cc4c(cc3[C@@H](O[C@@H]3O[C@@H]5CO[C@@H](C)O[C@H]5[C@H](O)[C@H]3O)[C@H]3COC(=O)[C@H]23)OCO4)cc(OC)c1O [ETOPOSIDE] | 3.39 | 
5 | COC(=O)C1=C[C@]2(C)C3=CC[C@]4(C)[C@@H]([C@H](C)CC[C@@H](O)C(C)(C)O)CC[C@]4(C)C3CCC2C(C)(C)C1=O (some centres not stated) | 3.96 | 66.51
6 | C[C@H](CC[C@@H](O)C(C)(C)O)[C@H]1CC[C@]2(C)C3CCC4C(C)(C)C(=O)C=C[C@]4(C)C3=CC[C@]12C (some centres not stated) | 26.9 | 149.97
7 | COC1=C[C@]2(C)C3=CC[C@]4(C)[C@@H]([C@H](C)CC[C@@H](O)C(C)(C)O)CC[C@]4(C)C3CCC2C(C)(C)C1=O (some centres not stated) | 29.6 | 22.7
8 | C[C@H](CC[C@@H](O)C(C)(C)O)[C@H]1CC[C@]2(C)C3CCC4C(C)(C)C(=O)C(Br)=C[C@]4(C)C3=CC[C@]12C (some centres not stated) | 14.3 | 18.27
9 | C[C@H](CC[C@@H](O)C(C)(C)O)[C@H]1CC[C@]2(C)C3CCC4C(C)(C)C(=O)C(C#N)=C[C@]4(C)C3=CC[C@]12C (some centres not stated) | 25.5 | 83.23
